This note sets out measurements from BindingDB's records for doi:10.7270/Q2DF6PMF (Nmmlsc, 2007).

In the assay the target is T1, N-formyl peptide receptor 2 (Homo sapiens, UniProt P25090).
T1 sequence (P25090 whole entry): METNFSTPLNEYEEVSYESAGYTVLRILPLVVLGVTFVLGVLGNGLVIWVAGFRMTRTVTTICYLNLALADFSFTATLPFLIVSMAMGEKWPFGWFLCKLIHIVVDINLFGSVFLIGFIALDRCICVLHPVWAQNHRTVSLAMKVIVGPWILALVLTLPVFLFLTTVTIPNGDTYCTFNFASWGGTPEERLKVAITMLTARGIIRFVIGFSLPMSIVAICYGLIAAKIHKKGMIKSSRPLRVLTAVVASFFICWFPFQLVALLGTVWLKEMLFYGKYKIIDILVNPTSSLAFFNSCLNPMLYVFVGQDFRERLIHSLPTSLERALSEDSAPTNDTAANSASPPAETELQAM
Nature of the assay: FPRL1 binding inhibitor potency, dose response, cell-based, FPR counter-screen, fluorescent ligand (AID 520).

In turn, `Clc1ccc(C2CC(c3cccs3)n3ncnc3N2)cc1Cl` (stereo not drawn) [5-(3,4-dichlorophenyl)-7-(2-thienyl)-1,5,6,7-tetrahydro-[1,2,4]triazolo[1,5-a]pyrimidine] registered an IC50 of over 66.7 µM.
Turning to `Cc1cccc(C2CC(c3ccc(Cl)cc3)Nc3nc(N)nn32)c1` (stereo not drawn) [5-(4-chlorophenyl)-7-(3-methylphenyl)-1,5,6,7-tetrahydro-[1,2,4]triazolo[1,5-a]pyrimidin-2-amine], the IC50 is over 66.7 µM.
As for `O=C(Nc1ccc(Nc2ccccc2)cc1)c1ccc(Br)o1` [5-bromanyl-N-(4-phenylazanylphenyl)furan-2-carboxamide], the IC50 was over 66.7 µM.
Compound `COc1ccc(-c2nc(-c3ccc(NC(=O)c4ccc(Br)o4)cc3)no2)cc1OC` [5-bromanyl-N-[4-[5-(3,4-dimethoxyphenyl)-1,2,4-oxadiazol-3-yl]phenyl]furan-2-carboxamide] came in with an IC50 of over 66.7 µM.
`Cc1nc2c(C#N)c[nH]n2c(=O)c1Cc1ccccc1` [5-methyl-7-oxo-6-(phenylmethyl)-1H-pyrazolo[1,5-a]pyrimidine-3-carbonitrile] displayed an IC50 of over 66.7 µM.
The compound `CCCCCNC(=O)c1ccc2c(=O)[nH]c3c(C(=O)NCC4CCCO4)sc(=S)n3c2c1` (stereo not drawn) [5-oxo-N3-(2-oxolanylmethyl)-N8-pentyl-1-sulfanylidene-4H-thiazolo[3,4-a]quinazoline-3,8-dicarboxamide] registered an IC50 of over 66.7 µM.
In turn, `Cc1ccsc1C1C2C(=O)CC(C)(C)CC2=Nc2ncnn21` (stereo not drawn) [6,6-dimethyl-9-(3-methyl-2-thienyl)-1,5,7,9-tetrahydro-[1,2,4]triazolo[5,1-b]quinazolin-8-one] returned a half-inhibitory concentration (IC50) of over 66.7 µM and an inhibitory constant (Ki) of over 40.3 µM.
Consider `Clc1ccc(Cc2nn3c(-c4ccncc4)nnc3s2)cc1` [6-(4-chlorobenzyl)-3-(4-pyridyl)-[1,2,4]triazolo[3,4-b][1,3,4]thiadiazole], for which the IC50 is over 66.7 µM.
The same measure, in the same setting: the same measure for `COc1ccc(-c2nc(N3CCCC3)[nH]c(=O)c2C#N)cc1` [6-(4-methoxyphenyl)-4-oxidanylidene-2-pyrrolidin-1-yl-1H-pyrimidine-5-carbonitrile]: over 66.7 µM; for `O=C(O)C1CC=CCC1C(=O)N1CCN(c2nc(-c3ccccc3)c3ccccc3n2)CC1` (stereo not drawn) [6-[4-(4-phenylquinazolin-2-yl)piperazin-1-yl]carbonylcyclohex-3-ene-1-carboxylic acid]: over 66.7 µM.
As for `COc1cc(-n2nc(C)c3c2OC(=N)C(C#N)C3c2ccccc2)c(Cl)c(Br)c1O` (stereo not drawn) [6-amino-1-(3-bromo-2-chloro-4-hydroxy-5-methoxyphenyl)-3-methyl-4-phenyl-1,4-dihydropyrano[2,3-c]pyrazole-5-carbonitrile], the IC50 was over 66.7 µM and the Ki was over 40.3 µM.
On to `CSCCC1c2c(-c3cccs3)n[nH]c2OC(=N)C1C#N` (stereo not drawn) [6-azanyl-4-(2-methylsulfanylethyl)-3-thiophen-2-yl-2,4-dihydropyrano[2,3-c]pyrazole-5-carbonitrile], for which the IC50 is over 66.7 µM and the Ki was over 40.3 µM.
Regarding `Cc1c(C)c2cc(Cl)c(O)c(CN3CCCCC3)c2oc1=O` [6-chloranyl-3,4-dimethyl-7-oxidanyl-8-(piperidin-1-ylmethyl)chromen-2-one], the IC50 was over 66.7 µM.
On the same count and under the same terms, with `Oc1cc(-c2ccccc2)nc(N2CCN(Cc3ccccc3)CC2)n1` [6-phenyl-2-[4-(phenylmethyl)-1-piperazinyl]-1H-pyrimidin-4-one] the figure was over 66.7 µM; with `COc1ccc2cnn(-c3ccccc3)c(=O)c2c1OC` [7,8-dimethoxy-2-phenyl-1(2H)-phthalazinone], over 66.7 µM; with `COc1ccc2c(=O)c(-c3cnn(-c4ccccc4)c3)c(C)oc2c1` [7-methoxy-2-methyl-3-(1-phenyl-1H-pyrazol-4-yl)-4H-chromen-4-one], over 66.7 µM.
In the case of `Cc1ccc(C2c3c([nH]c(=S)[nH]c3=O)N=C3CC(C)(C)CC(=O)C32)cc1` (stereo not drawn) [8,8-dimethyl-5-(4-methylphenyl)-2-sulfanylidene-5,7,9,10-tetrahydro-1H-pyrimido[4,5-b]quinoline-4,6-dione], the half-inhibitory concentration (IC50) was over 66.7 µM and the Ki is over 40.3 µM.
The compound `COc1ccccc1Oc1c(C)oc2c(CN(C)C)c(O)ccc2c1=O` [8-Dimethylaminomethyl-7-hydroxy-3-(2-methoxy-phenoxy)-2-methyl-chromen-4-one] yielded an IC50 of over 66.7 µM.
The compound `COc1ccc(OC)c(C(=O)c2nc3c(n2O)CCCCC3)c1` [(2,5-dimethoxyphenyl)-(3-hydroxy-5,6,7,8-tetrahydro-4H-cyclohept[d]imidazol-2-yl)methanone] had an IC50 of over 66.7 µM.
`Nc1ccc(Nc2ccccc2N)cc1` [(2-aminophenyl)-(4-aminophenyl)amine] showed an IC50 of 15 µM.
In turn, `COC(=O)[C@H](C(C)C)n1c(C)c(C(C)=O)c(C(C)=O)c1C` [(2S)-2-(3,4-diacetyl-2,5-dimethyl-1-pyrrolyl)-3-methylbutanoic acid methyl ester] gave an IC50 of over 66.7 µM.
In the case of `CC1=C(C(=O)OC(C)C)[C@]2(C(=O)N(CC(N)=O)c3ccccc32)C(C#N)C(=N)O1` (stereo partly drawn) [(3R)-6'-amino-1-(2-amino-2-keto-ethyl)-5'-cyano-2-keto-2'-methyl-spiro[indoline-3,4'-pyran]-3'-carboxylic acid isopropyl ester], the IC50 is over 66.7 µM and the Ki is over 40.3 µM.
In turn, `C=CCN1C(=O)C2(c3ccccc31)C(C(=O)c1ccc3c(c1)OCCO3)C(=O)C(=O)N2CCCOC` (stereo not drawn) [(4'E)-1-allyl-4'-[2,3-dihydro-1,4-benzodioxin-6-yl(hydroxy)methylene]-1'-(3-methoxypropyl)spiro[indoline-3,5'-pyrrolidine]-2,2',3'-trione] had an IC50 of over 66.7 µM and a Ki of over 40.3 µM.
`CCCS(=O)(=O)N1CCCC(C(=O)N2CCC(Cc3ccccc3)CC2)C1` (stereo not drawn) [(4-benzylpiperidin-1-yl)-(1-propylsulfonylpiperidin-3-yl)methanone] returned an IC50 of over 66.7 µM.
Take `Cc1ccc(Nc2nc(C3CC3)cs2)cc1` [(4-cyclopropylthiazol-2-yl)-(p-tolyl)amine]: the IC50 was over 66.7 µM.
Consider `COc1cc(C2C(C(=O)c3ccc4c(c3)CC(C)O4)C(=O)C(=O)N2CCCn2ccnc2)ccc1O` (stereo not drawn) [(4E)-1-(3-imidazol-1-ylpropyl)-5-(3-methoxy-4-oxidanyl-phenyl)-4-[(2-methyl-2,3-dihydro-1-benzofuran-5-yl)-oxidanyl-methylidene]pyrrolidine-2,3-dione], for which the 50% inhibitory concentration (IC50) was over 66.7 µM and the Ki was over 40.3 µM.
As to `COCCCN1C(=O)C(=O)C(C(=O)c2ccc3c(c2)CC(C)O3)C1c1cccnc1` (stereo not drawn) [(4E)-1-(3-methoxypropyl)-4-[(2-methyl-2,3-dihydro-1-benzofuran-5-yl)-oxidanyl-methylidene]-5-pyridin-3-yl-pyrrolidine-2,3-dione], the IC50 is over 66.7 µM and the Ki is over 40.3 µM.
With `Cc1ccc(C)c(C(=O)C2C(=O)C(=O)N(CCCn3ccnc3)C2c2ccncc2)c1` (stereo not drawn) [(4E)-4-[(2,5-dimethylphenyl)-hydroxy-methylene]-1-(3-imidazol-1-ylpropyl)-5-(4-pyridyl)pyrrolidine-2,3-quinone], the IC50 is over 66.7 µM and the Ki is over 40.3 µM.
Taken in the same sequence, the figures for `Cc1nc2c(C)cccn2c1C(=O)C1C(=O)C(=O)N(CCN2CCOCC2)C1c1cccs1` (stereo not drawn) [(4E)-4-[(2,8-dimethyl-3-imidazo[1,2-a]pyridinyl)-hydroxymethylidene]-1-[2-(4-morpholinyl)ethyl]-5-thiophen-2-ylpyrrolidine-2,3-dione] were over 66.7 µM and over 40.3 µM.
In turn, `COc1cccc(C2C(C(=O)c3ccc(OC)c(OC)c3)C(=O)C(=O)N2c2cc(C)on2)c1` (stereo not drawn) [(4E)-4-[(3,4-dimethoxyphenyl)-hydroxy-methylene]-5-(3-methoxyphenyl)-1-(5-methylisoxazol-3-yl)pyrrolidine-2,3-quinone] gave an IC50 of over 66.7 µM and a Ki of over 40.3 µM.
As to `COCCCN1C(=O)C(=O)C(C(=O)c2ccc(OC)cc2C)C1c1cccnc1` (stereo not drawn) [(4E)-4-[(4-methoxy-2-methyl-phenyl)-oxidanyl-methylidene]-1-(3-methoxypropyl)-5-pyridin-3-yl-pyrrolidine-2,3-dione], the IC50 is over 66.7 µM and the Ki is over 40.3 µM.
For the compound `COCCCN1C(=O)C(=O)C(C(=O)c2ccccc2)C1c1ccc2c(c1)OCO2` (stereo not drawn) [(4E)-5-(1,3-benzodioxol-5-yl)-1-(3-methoxypropyl)-4-[oxidanyl(phenyl)methylidene]pyrrolidine-2,3-dione], the IC50 was over 66.7 µM and the Ki is over 40.3 µM.
Turning to `COc1ccc(C(=O)C2C(=O)C(=O)N(Cc3ccco3)C2c2ccc(OC)cc2OC)cc1` (stereo not drawn) [(4E)-5-(2,4-dimethoxyphenyl)-1-(2-furanylmethyl)-4-[hydroxy-(4-methoxyphenyl)methylidene]pyrrolidine-2,3-dione], the IC50 is over 66.7 µM and the Ki was over 40.3 µM.
`CC1Cc2cc(C(=O)C3C(=O)C(=O)N(CCN4CCOCC4)C3c3ccccc3F)ccc2O1` (stereo not drawn) [(4E)-5-(2-fluorophenyl)-4-[(2-methyl-2,3-dihydro-1-benzofuran-5-yl)-oxidanyl-methylidene]-1-(2-morpholin-4-ylethyl)pyrrolidine-2,3-dione] yielded an IC50 of over 66.7 µM and a Ki of over 40.3 µM.
`Cc1ccc(C(=O)C2C(=O)C(=O)N(c3cc(C)on3)C2c2cccc(Br)c2)cc1` (stereo not drawn) [(4E)-5-(3-bromophenyl)-1-(5-methyl-1,2-oxazol-3-yl)-4-[(4-methylphenyl)-oxidanyl-methylidene]pyrrolidine-2,3-dione] registered an IC50 of over 66.7 µM and a Ki of over 40.3 µM.
Taken in the same sequence, the figures for `Cc1cc(N2C(=O)C(=O)C(C(=O)c3ccc(F)cc3)C2c2cccc(Br)c2)no1` (stereo not drawn) [(4E)-5-(3-bromophenyl)-4-[(4-fluorophenyl)-hydroxy-methylene]-1-(5-methylisoxazol-3-yl)pyrrolidine-2,3-quinone] were over 66.7 µM and over 40.3 µM.
